From patent publication US20140370048A1, “COMPOSITION FOR TREATMENT OR PREVENTION OF HYPERLIPIDEMIA, CONTAINING ALCOHOL EXTRACTS OF OLIGOPORUS TEPHROLEUCUS” (POSTECH ACADEMY-INDUSTRY FOUNDATION, priority 2011, published 2014)

System: cholesterol absorption in the digestive tract
Test: Amount of cholesterol absorption into blood from the digestive tract after oral 3H-cholesterol oleate in mice
Type: in vivo
Conditions: 8-week old male Balb/c mouse, plasma six hours after administration, extract 20 ml of 10 mg/mL concentrated into 0.1 mL, Orlistat 400 μg (20 mg/kg), FIG. 2
Method: Cholesterol oleate (Amersham, 100 μCi/mL) radiolabeled with ^3H was mixed with 1% (w/v) sodium carboxylmethyl cellulose (CMC-Na), 1% (v/v) Tween 80, and a non-labeled cholesterol oleate, and then 0.1 mL of the mixture was forcibly administered into each mouse through an oral zonde so that 1 μCi could be delivered to each mouse. Here, the mouse in the control group (an 8-week old male Balb/c with body weight of 25 g) was treated with 400 μg of Orlistat (20 mg/kg), which has an inhibitory effect against cholesterol absorption, and the mouse in the experimental group (an 8-week old male Balb/c with body weight of 25 g) was treated with 20 ml of the ethanol extract (10 mg/mL) of Oligoporus tephroleucus prepared in the Example after concentrating it into 0.1 mL. Six hours after the administration, blood samples were collected from the mice, and plasma was obtained by centrifuging the blood at […] at the rate of 14000 rpm, and the radioactive dose was measured by a liquid scintillator (Beta counter, Beckman LS1801). The Control group was not treated with anything that may inhibit the absorption of cholesterol. The amount of cholesterol absorption was determined as a relative value by dividing the radioactive dose of each group into the radioactive dose of the control group, in which the radioactive dose of the control group was set at ‘1’.

## CCCCCCCCCCC[C@@H](C[C@@H]1OC(=O)[C@H]1CCCCCC)OC(=O)[C@H](CC(C)C)NC=O [Orlistat]
  inhibitory effect upon the cholesterol absorption (plasma radioactive dose relative to untreated control set at 1): significant inhibitory effect
